Measurements as given in patent publication US11746116B2, “Antibiotic resistance breakers” (KING'S COLLEGE LONDON, priority 2017, dated 2023).
Values after ≈ are worked out from the molar mass of the structure shown. Values joined by “and” are separate entries in the source; they are usually repeats but may differ in a detail not shown here. Identical values can stand only once. Like-named read-outs stand apart in the source and are kept apart here.

Columns and labels:
[1] = Single dose pharmacokinetics study, oral route; settings: 20 mg/kg
[2] = mouse, in vivo
[3] = test system: Neisseria gonorrhoeae strains
[4] = molecular target: Safetyscreen44 off target panel (Homo sapiens, UniProt Q14432)
[5] = molecular target: Safetyscreen44 off target panel (Homo sapiens, UniProt P31645)
[6] = molecular target: Safetyscreen44 off target panel (Homo sapiens, UniProt P06239)
[7] = molecular target: Safetyscreen44 off target panel (Homo sapiens, UniProt P28223)
[8] = molecular target: Safetyscreen44 off target panel (Homo sapiens, UniProt P10275)
[9] = molecular target: Safetyscreen44 off target panel (Homo sapiens, UniProt P08588)
[10] = molecular target: Safetyscreen44 off target panel (Homo sapiens, UniProt P23219)
[11] = molecular target: Safetyscreen44 off target panel (Homo sapiens, UniProt P35372)
[12] = molecular target: Safetyscreen44 off target panel (Homo sapiens, UniProt P35367)
[13] = molecular target: Safetyscreen44 off target panel (Homo sapiens, UniProt P43681)
[14] = molecular target: Safetyscreen44 off target panel (Homo sapiens, UniProt P41595)
[15] = molecular target: Safetyscreen44 off target panel (Homo sapiens, UniProt P11229)
[16] = molecular target: Safetyscreen44 off target panel (Homo sapiens, UniProt P08172)
[17] = molecular target: Safetyscreen44 off target panel (Homo sapiens, UniProt P21554)
[18] = molecular target: Safetyscreen44 off target panel (Homo sapiens, UniProt P37288)
[19] = molecular target: Safetyscreen44 off target panel (Homo sapiens, UniProt P22303)
[20] = molecular target: Safetyscreen44 off target panel (Homo sapiens, UniProt P08908)
[21] = male, CD-1 (ICR), mouse, in vivo, po

Safetyscreen44 off target panel (Homo sapiens, UniProt P28223), sequence (P28223 whole entry): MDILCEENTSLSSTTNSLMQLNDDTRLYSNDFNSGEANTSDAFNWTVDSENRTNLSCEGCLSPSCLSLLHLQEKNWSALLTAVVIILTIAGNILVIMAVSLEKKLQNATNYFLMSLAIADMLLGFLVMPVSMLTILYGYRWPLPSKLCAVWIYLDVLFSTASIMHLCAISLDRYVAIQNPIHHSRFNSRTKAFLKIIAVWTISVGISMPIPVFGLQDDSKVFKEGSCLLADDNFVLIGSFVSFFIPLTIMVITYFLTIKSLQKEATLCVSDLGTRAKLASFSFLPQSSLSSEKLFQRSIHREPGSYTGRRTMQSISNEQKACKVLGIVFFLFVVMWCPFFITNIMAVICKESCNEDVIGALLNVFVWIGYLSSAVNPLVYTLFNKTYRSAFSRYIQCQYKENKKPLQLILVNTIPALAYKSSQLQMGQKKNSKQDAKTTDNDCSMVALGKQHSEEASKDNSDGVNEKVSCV
Safetyscreen44 off target panel (Homo sapiens, UniProt Q14432), sequence (Q14432 whole entry): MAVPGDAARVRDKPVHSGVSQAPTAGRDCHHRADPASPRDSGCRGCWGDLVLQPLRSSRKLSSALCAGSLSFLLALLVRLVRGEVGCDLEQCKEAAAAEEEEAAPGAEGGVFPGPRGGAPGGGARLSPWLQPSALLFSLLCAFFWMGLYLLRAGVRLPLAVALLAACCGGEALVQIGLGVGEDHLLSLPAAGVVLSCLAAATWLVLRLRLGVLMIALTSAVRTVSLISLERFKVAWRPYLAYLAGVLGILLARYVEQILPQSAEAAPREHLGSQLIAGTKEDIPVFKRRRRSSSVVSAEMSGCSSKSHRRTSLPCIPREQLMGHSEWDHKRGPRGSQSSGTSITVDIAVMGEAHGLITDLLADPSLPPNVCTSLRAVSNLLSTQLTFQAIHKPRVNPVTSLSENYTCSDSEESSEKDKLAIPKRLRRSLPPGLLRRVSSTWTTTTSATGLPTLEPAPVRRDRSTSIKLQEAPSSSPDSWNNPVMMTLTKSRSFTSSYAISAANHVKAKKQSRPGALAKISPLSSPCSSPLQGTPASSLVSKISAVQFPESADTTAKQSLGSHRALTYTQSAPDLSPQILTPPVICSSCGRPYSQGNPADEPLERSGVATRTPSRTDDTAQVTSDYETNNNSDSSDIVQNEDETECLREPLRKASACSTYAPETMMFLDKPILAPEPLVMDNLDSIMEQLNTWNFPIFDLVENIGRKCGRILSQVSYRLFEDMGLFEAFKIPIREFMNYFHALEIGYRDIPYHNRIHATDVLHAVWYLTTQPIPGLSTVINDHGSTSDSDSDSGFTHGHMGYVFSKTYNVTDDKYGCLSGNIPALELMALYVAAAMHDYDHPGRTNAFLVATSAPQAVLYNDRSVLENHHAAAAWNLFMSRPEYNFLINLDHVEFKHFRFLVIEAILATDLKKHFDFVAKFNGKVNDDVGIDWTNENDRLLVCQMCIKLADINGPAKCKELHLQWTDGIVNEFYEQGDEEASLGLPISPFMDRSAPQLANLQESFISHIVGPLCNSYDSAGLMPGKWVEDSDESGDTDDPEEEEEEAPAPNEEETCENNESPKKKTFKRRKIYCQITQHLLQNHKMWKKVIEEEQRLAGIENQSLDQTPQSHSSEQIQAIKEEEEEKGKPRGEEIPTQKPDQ
Safetyscreen44 off target panel (Homo sapiens, UniProt P41595), sequence (P41595 whole entry): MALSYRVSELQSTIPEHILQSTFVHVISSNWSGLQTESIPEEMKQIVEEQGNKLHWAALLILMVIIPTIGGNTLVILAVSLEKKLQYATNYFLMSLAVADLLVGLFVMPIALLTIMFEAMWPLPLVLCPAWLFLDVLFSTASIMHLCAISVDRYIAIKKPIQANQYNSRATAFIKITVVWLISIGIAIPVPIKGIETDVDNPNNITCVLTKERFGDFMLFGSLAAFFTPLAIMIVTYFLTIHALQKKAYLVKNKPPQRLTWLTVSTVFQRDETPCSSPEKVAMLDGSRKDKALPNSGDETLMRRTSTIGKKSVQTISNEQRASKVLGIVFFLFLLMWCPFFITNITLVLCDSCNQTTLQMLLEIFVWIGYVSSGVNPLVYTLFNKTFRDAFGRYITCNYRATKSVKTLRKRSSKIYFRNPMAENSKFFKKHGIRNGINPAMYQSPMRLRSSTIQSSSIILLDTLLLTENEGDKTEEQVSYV
Safetyscreen44 off target panel (Homo sapiens, UniProt P06239), sequence (P06239 whole entry): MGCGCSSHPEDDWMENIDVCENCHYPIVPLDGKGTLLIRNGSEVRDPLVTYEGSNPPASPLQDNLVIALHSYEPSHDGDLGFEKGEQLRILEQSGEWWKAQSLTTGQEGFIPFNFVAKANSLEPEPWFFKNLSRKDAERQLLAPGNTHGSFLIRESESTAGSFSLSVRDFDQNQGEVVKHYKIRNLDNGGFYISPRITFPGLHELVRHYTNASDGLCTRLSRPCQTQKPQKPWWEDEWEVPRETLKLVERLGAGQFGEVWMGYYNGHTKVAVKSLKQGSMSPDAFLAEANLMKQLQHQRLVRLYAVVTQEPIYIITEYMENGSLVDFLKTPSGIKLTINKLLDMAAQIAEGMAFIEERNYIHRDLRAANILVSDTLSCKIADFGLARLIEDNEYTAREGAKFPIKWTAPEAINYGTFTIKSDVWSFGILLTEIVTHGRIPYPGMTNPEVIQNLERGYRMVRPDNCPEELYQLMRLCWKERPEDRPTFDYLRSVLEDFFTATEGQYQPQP
Safetyscreen44 off target panel (Homo sapiens, UniProt P08172), sequence (P08172 whole entry): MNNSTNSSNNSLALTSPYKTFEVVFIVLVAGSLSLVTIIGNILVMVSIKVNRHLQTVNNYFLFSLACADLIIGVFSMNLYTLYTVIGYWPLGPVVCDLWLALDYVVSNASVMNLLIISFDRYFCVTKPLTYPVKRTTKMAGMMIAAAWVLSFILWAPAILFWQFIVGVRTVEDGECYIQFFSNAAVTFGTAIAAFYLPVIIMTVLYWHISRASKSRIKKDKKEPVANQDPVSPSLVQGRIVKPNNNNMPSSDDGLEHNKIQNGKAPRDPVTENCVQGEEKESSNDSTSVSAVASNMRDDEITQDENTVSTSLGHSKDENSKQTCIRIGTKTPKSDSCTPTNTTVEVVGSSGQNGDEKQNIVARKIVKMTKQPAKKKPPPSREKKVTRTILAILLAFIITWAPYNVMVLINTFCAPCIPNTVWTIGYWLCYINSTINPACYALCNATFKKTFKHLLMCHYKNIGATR
Safetyscreen44 off target panel (Homo sapiens, UniProt P08588), sequence (P08588 whole entry): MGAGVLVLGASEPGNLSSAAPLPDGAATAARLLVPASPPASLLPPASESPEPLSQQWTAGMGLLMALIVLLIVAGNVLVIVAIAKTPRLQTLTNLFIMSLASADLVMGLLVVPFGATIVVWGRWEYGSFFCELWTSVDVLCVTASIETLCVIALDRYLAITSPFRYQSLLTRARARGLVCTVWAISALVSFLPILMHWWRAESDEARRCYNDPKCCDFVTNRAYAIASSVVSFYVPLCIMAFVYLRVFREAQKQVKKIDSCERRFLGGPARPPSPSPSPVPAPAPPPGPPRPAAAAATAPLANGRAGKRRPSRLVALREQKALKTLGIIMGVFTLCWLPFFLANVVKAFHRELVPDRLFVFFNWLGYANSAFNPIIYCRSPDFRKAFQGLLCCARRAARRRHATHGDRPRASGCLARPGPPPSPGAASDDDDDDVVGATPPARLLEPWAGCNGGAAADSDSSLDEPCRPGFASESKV
Safetyscreen44 off target panel (Homo sapiens, UniProt P35372), sequence (P35372 whole entry): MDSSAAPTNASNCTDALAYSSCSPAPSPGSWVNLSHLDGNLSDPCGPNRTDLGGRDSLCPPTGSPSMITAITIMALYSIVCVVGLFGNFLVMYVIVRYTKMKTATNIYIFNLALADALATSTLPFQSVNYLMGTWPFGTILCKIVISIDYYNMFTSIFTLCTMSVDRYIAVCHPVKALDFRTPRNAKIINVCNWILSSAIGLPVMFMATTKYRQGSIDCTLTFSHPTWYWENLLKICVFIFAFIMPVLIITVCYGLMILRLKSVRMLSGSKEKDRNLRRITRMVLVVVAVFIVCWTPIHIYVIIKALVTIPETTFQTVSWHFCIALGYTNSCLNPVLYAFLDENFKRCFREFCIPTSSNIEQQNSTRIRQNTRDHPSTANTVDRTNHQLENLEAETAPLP
Safetyscreen44 off target panel (Homo sapiens, UniProt P43681), sequence (P43681 27-627): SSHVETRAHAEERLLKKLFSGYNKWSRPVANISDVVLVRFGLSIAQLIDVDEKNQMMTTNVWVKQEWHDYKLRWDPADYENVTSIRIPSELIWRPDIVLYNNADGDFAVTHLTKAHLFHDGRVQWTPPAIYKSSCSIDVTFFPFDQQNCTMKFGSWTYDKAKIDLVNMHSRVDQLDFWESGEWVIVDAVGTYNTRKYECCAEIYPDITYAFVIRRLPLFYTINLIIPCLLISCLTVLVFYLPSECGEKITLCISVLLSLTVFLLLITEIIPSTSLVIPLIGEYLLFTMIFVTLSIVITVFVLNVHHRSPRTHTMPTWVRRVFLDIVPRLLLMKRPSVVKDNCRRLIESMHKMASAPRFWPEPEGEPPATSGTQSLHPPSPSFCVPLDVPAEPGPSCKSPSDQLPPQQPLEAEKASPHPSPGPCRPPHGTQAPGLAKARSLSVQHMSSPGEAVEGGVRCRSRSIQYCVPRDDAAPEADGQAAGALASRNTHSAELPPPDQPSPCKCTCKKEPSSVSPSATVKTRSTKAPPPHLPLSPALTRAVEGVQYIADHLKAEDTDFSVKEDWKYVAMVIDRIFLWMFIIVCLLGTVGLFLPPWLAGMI
Safetyscreen44 off target panel (Homo sapiens, UniProt P08908), sequence (P08908 whole entry): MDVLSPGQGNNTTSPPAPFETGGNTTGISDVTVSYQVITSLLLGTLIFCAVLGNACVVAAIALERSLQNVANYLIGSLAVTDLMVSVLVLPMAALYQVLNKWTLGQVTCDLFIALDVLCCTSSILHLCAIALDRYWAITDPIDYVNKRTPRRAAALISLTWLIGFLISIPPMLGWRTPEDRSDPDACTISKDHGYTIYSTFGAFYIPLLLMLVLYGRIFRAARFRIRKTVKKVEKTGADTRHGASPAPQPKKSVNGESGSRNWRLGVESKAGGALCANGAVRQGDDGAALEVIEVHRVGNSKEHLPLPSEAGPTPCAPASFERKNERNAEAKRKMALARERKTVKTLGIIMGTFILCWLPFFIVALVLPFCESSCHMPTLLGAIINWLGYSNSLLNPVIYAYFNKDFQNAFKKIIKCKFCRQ

## C[C@H]1COc2c(N3CC[C@@H](Nc4ncccn4)C3)c(F)cc3c(=O)c(C(=O)O)cn1c23 [KSN-82-L22]
[1]; PO, Male CD1 mouse, blood, Mean
  Clast: 628 ng/mL
[1]; [21]
  AUC: 8230 ng·h/mL and 19.3 µM·h
  AUC(0-inf): 31 µM·h
  Cmax: 4.01 µM and 2960 ng/mL
  Tmax: 1 h
[2]; male, CD-1 (ICR)
  Bioavailability Using AUCinf: 49-3%
  Bioavailability Using AUCo.t: 32.0%
[2]; male, CD-1 (ICR), po, 20 mg/kg
  AUGinf: 13203 ng·h/mL
[2]; po, 20 mg/kg
  T½: 5-1 h
[3]; ATCC49226, strain ATCC 49226, PEN-I TET-I
  MIC: < 0.0312 µg/mL
[3]; ATCC700825, strain ATCC 700825
  MIC: 50 µg/mL (≈ 118 µM)
[3]; BAA1833, strain BAA-1833, PEN-I TET-I
  MIC: 50 µg/mL (≈ 118 µM)
[3]; BAA1838, strain BAA-1838
  MIC: 50 µg/mL (≈ 118 µM)
[3]; CCUG57595, strain CCUG 57595
  MIC: 50 µg/mL (≈ 118 µM)
[3]; CCUG57596
  MIC: 0.125 µg/mL (≈ 0.294 µM)
[3]; CCUG57597, strain CCUG 57597, FEP-NS FOX-I CAZ-NS CIP-R OFX-R PEN-R TET-R
  MIC: 2 µg/mL (≈ 4.7 µM)
[3]; CCUG57598, strain CCUG 57598, FOX-R CAZ-NS CRO-NS CIP-R OFX-R PEN-R TET-R
  MIC: 2 µg/mL (≈ 4.7 µM)
[3]; CCUG57599, strain CCUG 57599, CIP-R OFX-R PEN-R TET-R
  MIC: 0 to 5 µg/mL
[3]; CCUG57600, strain CCUG 57600, CIP-R OFX-R PEN-R TET-R
  MIC: 1 µg/mL (≈ 2.35 µM)
[3]; CCUG57601, strain CCUG 57601, PEN-R TET-R
  MIC: < 0.0312 µg/mL
[3]; CCUG57602, strain CCUG 57602, PEN-I TET-I
  MIC: 0.0625 µg/mL (≈ 0.147 µM)
[3]; NCTC13817, strain NCTC 13817, PEN-R TET-I
  MIC: 0 to 5 µg/mL
[3]; NCTC13818, strain NCTC 13818, CIP-R OFX-R PEN-R TET-R
  MIC: 2 µg/mL (≈ 4.7 µM)
[3]; NCTC13819, strain NCTC 13819, FEP-NS CAZ-NS CIP-R OFX-R PEN-R TET-I
  MIC: 2 µg/mL (≈ 4.7 µM)
[3]; NCTC13820, strain NCTC 13820, FEP-NS CFM-NS CAZ-NS CRO-NS CIP-R OFX-R PEN-R TET-R
  MIC: 2 µg/mL (≈ 4.7 µM)
[3]; NCTC13821, strain NCTC 13821, FEP-NS CFM-NS CAZ-NS CRO-NS CIP-R PEN-I TET-I
  MIC: 2 µg/mL (≈ 4.7 µM)
[3]; NCTC13822, strain NCTC 13822, FEP-NS CFM-NS CAZ-NS CIP-R OFX-R PEN-R TET-I
  MIC: 2 µg/mL (≈ 4.7 µM)
[3]; strain 2007NG046, PEN-R CFM-R CPD-R CIP-R
  MIC: 4 µg/mL (≈ 9.4 µM)
[3]; strain 2008NG057, PEN-R CFM-R CPD-R CIP-R
  MIC: 2 µg/mL (≈ 4.7 µM)
[3]; strain 2008NG097, PEN-R CFM-R CPD-R CIP-R
  MIC: 2 µg/mL (≈ 4.7 µM)
[3]; strain 2009NG514, PEN-R CPD-R CIP-R
  MIC: 2 µg/mL (≈ 4.7 µM)
[3]; strain 2010NG122, PEN-R CFM-R CIP-R
  MIC: 2 µg/mL (≈ 4.7 µM)
[3]; strain FDA-CDC AR-BANK#0165, CIP-R PEN-I TET-R
  MIC: 2 µg/mL (≈ 4.7 µM)
[3]; strain FDA-CDC AR-BANK#0166, CIP-R PEN-I TET-R
  MIC: 2 µg/mL (≈ 4.7 µM)
[3]; strain FDA-CDC AR-BANK#0167, CIP-S PEN-S TET-I
  MIC: < 0.0312 µg/mL
[3]; strain FDA-CDC AR-BANK#0168, CIP-R PEN-I TET-R
  MIC: 1 µg/mL (≈ 2.35 µM)
[3]; strain FDA-CDC AR-BANK#0169, CIP-R PEN-I TET-R
  MIC: 2 µg/mL (≈ 4.7 µM)
[3]; strain FDA-CDC AR-BANK#0170, CIP-R PEN-I TET-R
  MIC: 2 µg/mL (≈ 4.7 µM)
[3]; strain FDA-CDC AR-BANK#0171, CIP-R PEN-I TET-R
  MIC: 1 µg/mL (≈ 2.35 µM)
[3]; strain FDA-CDC AR-BANK#0172, CIP-R PEN-R TET-R
  MIC: 1 µg/mL (≈ 2.35 µM)
[3]; strain FDA-CDC AR-BANK#0173, CIP-R PEN-R TET-R
  MIC: 2 µg/mL (≈ 4.7 µM)
[3]; strain FDA-CDC AR-BANK#0174, CIP-R PEN-R TET-R
  MIC: 2 µg/mL (≈ 4.7 µM)
[3]; strain FDA-CDC AR-BANK#0175, CIP-S PEN-I TET-I
  MIC: < 0.0312 µg/mL
[3]; strain FDA-CDC AR-BANK#0176, CIP-R PEN-R TET-R
  MIC: 2 µg/mL (≈ 4.7 µM)
[3]; strain FDA-CDC AR-BANK#0177, CIP-S PEN-I TET-R
  MIC: < 0.0312 µg/mL
[3]; strain FDA-CDC AR-BANK#0178, CIP-R PEN-R TET-R
  MIC: 2 µg/mL (≈ 4.7 µM)
[3]; strain FDA-CDC AR-BANK#0179, CIP-S PEN-S TET-I
  MIC: < 0.0312 µg/mL
[3]; strain FDA-CDC AR-BANK#0180, CIP-R PEN-I TET-R
  MIC: 2 µg/mL (≈ 4.7 µM)
[3]; strain FDA-CDC AR-BANK#0181, CIP-S PEN-I TET-R
  MIC: < 0.0312 µg/mL
[3]; strain FDA-CDC AR-BANK#0182, CIP-R PEN-I TET-R
  MIC: 2 µg/mL (≈ 4.7 µM)
[3]; strain FDA-CDC AR-BANK#0183, CIP-R PEN-R TET-R
  MIC: 2 µg/mL (≈ 4.7 µM)
[3]; strain FDA-CDC AR-BANK#0184, CIP-R PEN-R TET-R
  MIC: 2 µg/mL (≈ 4.7 µM)
[3]; strain FDA-CDC AR-BANK#0185, CIP-R PEN-I TET-R
  MIC: 2 µg/mL (≈ 4.7 µM)
[3]; strain FDA-CDC AR-BANK#0186, CIP-R PEN-R TET-R
  MIC: 1 µg/mL (≈ 2.35 µM)
[3]; strain FDA-CDC AR-BANK#0187, CIP-R PEN-I TET-R
  MIC: 2 µg/mL (≈ 4.7 µM)
[3]; strain FDA-CDC AR-BANK#0188, CIP-R PEN-I TET-R
  MIC: 1 µg/mL (≈ 2.35 µM)
[3]; strain FDA-CDC AR-BANK#0189, CIP-R PEN-R TET-R
  MIC: 2 µg/mL (≈ 4.7 µM)
[3]; strain FDA-CDC AR-BANK#0190, CIP-R PEN-R TET-R
  MIC: 2 µg/mL (≈ 4.7 µM)
[3]; strain FDA-CDC AR-BANK#0191, CIP-R PEN-R TET-R
  MIC: 2 µg/mL (≈ 4.7 µM)
[3]; strain FDA-CDC AR-BANK#0192, CIP-R PEN-R TET-R
  MIC: 2 µg/mL (≈ 4.7 µM)
[3]; strain FDA-CDC AR-BANK#0193, CIP-S PEN-R TET-R
  MIC: < 0.0312 µg/mL
[3]; strain FDA-CDC AR-BANK#0194, CRO-NS CIP-S PEN-I TET-R
  MIC: < 0.0312 µg/mL
[3]; strain FDA-CDC AR-BANK#0195, CIP-R PEN-I TET-R
  MIC: 2 µg/mL (≈ 4.7 µM)
[3]; strain FDA-CDC AR-BANK#0196, CIP-R PEN-R TET-R
  MIC: 2 µg/mL (≈ 4.7 µM)
[3]; strain FDA-CDC AR-BANK#0197, CIP-R PEN-I TET-I
  MIC: 2 µg/mL (≈ 4.7 µM)
[3]; strain FDA-CDC AR-BANK#0198, CIP-R PEN-R TET-R
  MIC: 2 µg/mL (≈ 4.7 µM)
[3]; strain FDA-CDC AR-BANK#0199, CIP-S PEN-R TET-R
  MIC: < 0.0312 µg/mL
[3]; strain FDA-CDC AR-BANK#0200, CIP-R PEN-R TET-R
  MIC: 2 µg/mL (≈ 4.7 µM)
[3]; strain FDA-CDC AR-BANK#0201, CIP-R PEN-R TET-R
  MIC: 2 µg/mL (≈ 4.7 µM)
[3]; strain FDA-CDC AR-BANK#0202, CIP-S PEN-S TET-I
  MIC: < 0.0312 µg/mL
[3]; strain FDA-CDC AR-BANK#0203, CIP-R PEN-R TET-R
  MIC: 2 µg/mL (≈ 4.7 µM)
[3]; strain FDA-CDC AR-BANK#0204, CIP-R PEN-I TET-R
  MIC: 2 µg/mL (≈ 4.7 µM)
[3]; strain FDA-CDC AR-BANK#0205, CIP-R PEN-R TET-R
  MIC: 2 µg/mL (≈ 4.7 µM)
[3]; strain FDA-CDC AR-BANK#0206, CIP-R PEN-R TET-R
  MIC: 2 µg/mL (≈ 4.7 µM)
[3]; strain FDA-CDC AR-BANK#0207, CIP-R PEN-R TET-R
  MIC: 2 µg/mL (≈ 4.7 µM)
[3]; strain FDA-CDC AR-BANK#0208, CIP-R PEN-I TET-R
  MIC: 2 µg/mL (≈ 4.7 µM)
[3]; strain FDA-CDC AR-BANK#0209, CIP-R PEN-I TET-R
  MIC: 2 µg/mL (≈ 4.7 µM)
[3]; strain FDA-CDC AR-BANK#0210, CIP-R PEN-I TET-I
  MIC: 2 µg/mL (≈ 4.7 µM)
[3]; strain FDA-CDC AR-BANK#0211, CIP-R PEN-R TET-R
  MIC: 2 µg/mL (≈ 4.7 µM)
[3]; strain FDA-CDC AR-BANK#0212, CIP-R PEN-I TET-R
  MIC: 2 µg/mL (≈ 4.7 µM)
[3]; strain FDA-CDC AR-BANK#0213, CIP-R PEN-I TET-I
  MIC: 1 µg/mL (≈ 2.35 µM)
[3]; strain FDA-CDC AR-BANK#0214, CIP-R PEN-R TET-R
  MIC: 2 µg/mL (≈ 4.7 µM)
[3]; strain TCDC-NG08107, PEN-R CFM-R CPD-R CIP-R
  MIC: 2 µg/mL (≈ 4.7 µM)
[4]
  % inhibition, PDE3A (h): 7.502%
[5]
  % inhibition, 5-HT transporter (h) (antagonist radioligand): −16.9663%
[6]
  % inhibition, Lck kinase (h): −2.891%
[7]
  % inhibition, 5-HT2A (h) (agonist radioligand): −8.881%
[8]
  % inhibition, AR (h) (agonist radioligand): 4.241%
[9]
  % inhibition, beta 1 (h) (agonist radioligand): 1.921%
[10]
  % inhibition, COX1 (h): 30.3185%
[11]
  % inhibition, mu (MOP) (h) (agonist radioligand): 6.535%
[12]
  % inhibition, H1 (h) (antagonist radioligand): 5.564%
[13]
  % inhibition, N neuronal alpha 4beta 2 (h) (agonist radioligand): −41.8108%
[14]
  % inhibition, 5-HT2B (h) (agonist radioligand): 5.374%
[15]
  % inhibition, M1 (h) (antagonist radioligand): 3.129%
[16]
  % inhibition, M2 (h) (antagonist radioligand): 1.066%
[17]
  % inhibition, CB1 (h) (agonist radioligand): 1.857%
[18]
  % inhibition, V1a (h) (agonist radioligand): −12.5662%
[19]
  % inhibition, acetylcholinesterase (h): 32.9861%
[20]
  % inhibition, 5-HT1A(h) (agonist radioligand): −3.77%
